Test results from PubChem BioAssay (NCI).
Values joined by “and” are separate entries in the source; they are usually repeats but may differ in a detail not shown here. Identical values can stand only once.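 The compound was tested at five concentrations on cells cultured in 96-well plates, with a 48-hour exposure period. Here, GI50 denotes the concentration required for 50% inhibition of growth. TGI is the concentration that stops growth completely.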

Legend:
Test in all cases: growth of human tumour cells (NCI), 48 h
HOP-62 NSCLC = tested on: HOP-62 NSCLC
M14 melanoma = tested on: M14 melanoma
HCC-2998 colon = tested on: HCC-2998 colon
RPMI-8226 leukemia = tested on: RPMI-8226 leukemia
HCT-15 colon = tested on: HCT-15 colon
SF-295 CNS = tested on: SF-295 CNS
SK-MEL-5 melanoma = tested on: SK-MEL-5 melanoma
DU-145 prostate = tested on: DU-145 prostate
U251 CNS = tested on: U251 CNS
MDA-N = tested on: MDA-N
NCI-H23 lung = tested on: NCI-H23 lung

| SMILES | TGI (HOP-62 NSCLC) | TGI (M14 melanoma) [µM] | TGI (HCC-2998 colon) | TGI (RPMI-8226 leukemia) | TGI (HCT-15 colon) | TGI (SF-295 CNS) [µM] | TGI (SK-MEL-5 melanoma) | TGI (DU-145 prostate) [µM] | TGI (U251 CNS) | TGI (MDA-N) [µM] | TGI (NCI-H23 lung) | GI50 (MDA-N) |
| --- | --- | --- | --- | --- | --- | --- | --- | --- | --- | --- | --- | --- |
| COCCOCCOC1=C(Cl)C(=O)c2c(O)ccc(O)c2C1=O | 7.3 µM | 3.29 | 34 µM | 3.07 µM | 3.42 µM | 27.1 | 3.79 µM | 22.4 | 17.4 µM | 9.63 | 6.03 µM |  |
| Cn1c2ccccc2c(=NNc2ccc(C(=O)O)cc2)c2ccccc21 | 56.2 µM | 31.8 | 24.9 µM | 53.1 µM | 38.9 µM | 78.4 | 32.7 µM | 58 | 41 µM | 33.7 | 57.8 µM |  |
| C=CC[C@H]1[C@H](O[Si](C)(C)C(C)(C)C)C=CC(=O)[C@@H]1CC(=O)N(Cc1ccccc1)Cc1ccccc1 | > 100 µM | > 100 | 73.6 µM | > 100 µM | 35.6 µM | > 100 | 20.7 µM | > 100 | > 100 µM | > 100 | 30.5 µM |  |
| Nc1nc(Cl)cc(Nc2cc(Cl)cc(Cl)c2)n1 | 55.1 µM | 35.4 | 32.8 µM | 66.3 µM | 42.6 µM | 38.4 | 33.9 µM | 47.3 | 38.4 µM | 48.8 | 48.6 µM |  |
| OC1COC(n2c3ccc(Br)cc3c3ccc4c5ccccc5[nH]c4c32)C(O)C1O (stereo not drawn) | 14.7 µM | 15.3 | 11.4 µM | 15.8 µM | 15.7 µM | 10.6 | 5.2 µM | 12.6 | 32.1 µM | 15.2 | 12 µM |  |
| C[Si](C)(OCCS(=O)(=O)O)C1S(=O)(=O)OCCOS1(=O)=O | > 100 µM | > 100 | > 100 µM | > 100 µM | > 100 µM | 31.8 | > 100 µM | > 100 | > 100 µM | > 100 | > 100 µM |  |
| N/C(=N/n1c(=S)[nH]c2ccccc2c1=O)Nn1c(=S)[nH]c2ccccc2c1=O | 93.1 µM | 23.8 | > 100 µM | 57.5 µM | 55.5 µM | > 100 | > 100 µM | > 100 | 72.3 µM | 85.4 | 62.4 µM |  |
| N#CC1(C#N)NC(c2ccsc2)C(C#N)(C#N)NC1c1ccsc1 (stereo not drawn) | > 100 µM | > 100 | > 100 µM | > 100 µM | > 100 µM | > 100 | > 100 µM | > 100 | > 100 µM | > 100 | > 100 µM |  |
| COC(=O)/N=[N+](\[O-])C(c1ccc(OC)cc1)C1CCCCC1 (stereo not drawn) | 16.9 µM | 13.1 | 16.1 µM | 4.55 µM | 23.5 µM | 16.4 | > 41.4 µM | 10.8 | 20.1 µM | 12 | 22.6 µM |  |
| COc1ccc(N=C(Nc2ccc(OC)cc2)C(=Nc2ccc(OC)cc2)Nc2ccc(OC)cc2)cc1 | > 100 µM | > 100 | > 100 µM | > 100 µM | > 100 µM | > 100 | > 100 µM | > 100 | > 100 µM | > 100 | > 100 µM |  |
| COc1ccccc1N1CCN(Cn2c(=O)oc3cccnc32)CC1 | > 100 µM | > 100 | > 100 µM | > 100 µM | > 100 µM | > 100 | > 100 µM | > 100 | > 100 µM | > 100 | > 100 µM |  |
| CCOC(=O)CCC(NC(=O)c1ccc(N2CCN(c3c(C)nc(N)nc3N)CC2)cc1)C(=O)OCC (stereo not drawn) | > 100 µM | > 46 | > 100 µM | 6.94 µM | > 100 µM | > 100 | 19.6 µM | > 100 | > 100 µM | > 54.7 | > 100 µM |  |
| Brc1ccc2[nH]cc(-c3nc(-c4c[nH]c5ccccc45)cs3)c2c1 | 21.7 µM | 3.73 | 4.17 µM | > 20.7 µM | 6.89 µM | 10.6 | 4.01 µM | 10.4 | 8.38 µM | 9.35 | 8.84 µM |  |
| CNC(=S)N/N=C/c1cccc(C)n1 | 46.7 µM | 47.8 | > 100 µM | > 100 µM | > 100 µM | > 100 | > 74.9 µM | > 83.2 | > 100 µM | > 100 | > 81.2 µM |  |
| O[C@@H]1C[C@@H]2N[C@@](O)(C[C@@H]2O)[C@H]1O | > 100 µM | > 100 | > 100 µM | > 100 µM | > 100 µM | > 100 | > 100 µM | > 100 | > 100 µM | > 100 | > 100 µM |  |
| CCOc1ccc(NCc2cc(OC)c(OC)c(OC)c2)cc1 | > 36.6 µM and 24.7 µM | > 100 | 98.7 µM and > 50 µM | 57 µM and > 74.6 µM | 45.9 µM and 32.7 µM | 3.44 | 52.9 µM and > 60.6 µM | > 100 | 19.3 µM and 22.3 µM | > 100 | 31.4 µM and 39.3 µM | 0.565 µM and 0.446 µM |
| C=CC[C@H](C)CCC(=O)N1[C@H]2CC3CC[C@@]2(CS1(=O)=O)C3(C)C | > 100 µM | > 100 | > 100 µM | > 100 µM | 74.9 µM | > 100 | 51.3 µM | > 100 | > 100 µM | > 100 | > 100 µM |  |
